We go through 14 molecules from patent publication US20040110775A1, “Cyclin dependent kinase inhibiting purine derivatives” (priority 2001, published 2004).

Broadly, the IC50 is the midpoint of a concentration-inhibition curve.

For data set [1] the following is noted: disclosed in WO 99/02162; cited from earlier work.
Data set [2] concerns CDK1(cdc2)/cyclin B complexes. To be noted: disclosed in WO 99/02162; cited from earlier work.
The target of another data set is p34 cdc2(CDK1)/cyclinB. Nature of the data set: CDK assay: histone H1 phosphorylation with [32P]ATP by cdc2/cyclinB kinase. To be noted: read-out: IC50 ± SD CDK1. It is filed as biochemical, starfish (Marthasterias glacialis). The method, then: Assays are available for testing the inhibitory activity of the compounds of interest against a range of CDK/cyclin complexes, including CDK1/cyclin A, CDK1/cyclin B, CDK1/cyclin F, CDK2/cyclin A, CDK2/cyclin E, CDK4/cyclin D, CDK5/35 and CDK6/cyclin D3. […]
(§1) By way of example, however, a typical protocol is summarised below.
Buffer C (containing 6 mM β-glycerophosphate, 30 mM nitrophenyl phosphate, 25 mM MOPS pH 7.0, 5 mM EGTA, 15 mM MgCl2, […] and 0.1 mM sodium orthovanadate) is made up as follows:
Affinity purified p34 cdc2(CDK1)/cyclinB from M-phase starfish (Marthasterias glacialis) in 20% glycerol is stored at −80° C. in chest freezer
Histone H1 (type III-S (Sigma) 4° C.) 5 mg/ml in buffer C.
[^32P]ATP 75 mM: Make up using (multiples of) the following proportions:
DMSO cannot exceed 1% in the assay mixture. Inhibitors are added at 1/10 final assay volume and 10× final strength. DMSO stocks must therefore be diluted to 10× final desired concentration in ≦10% DMSO, ≧90% buffer C.
All reagents (except DMSO stocks) should be kept on ice until assay initiated.
Start reaction in each tube at 30 second intervals b)y adding
5 ml [^32P]ATP vortexing and placing in rack in waterbath at 30° C.
Terminate reaction after 10 min at 30 second intervals in tubes in same order by removing […] reaction mix and spotting onto appropriately labelled filter, allowing to dry for 20-30 seconds and transferring to stirring 1% phosphoric acid.
Blank incubation is performed as above but without histone (add […] buffer C instead) Washing blank is […] ATP added directly to filter.
Wash filters 5-6 times 5 min each
Dry the filters on paper towel
Count in mini scintillation vials with 5 ml scintillant.
NB. The assay can be simplified by making up stock reaction mix as follows:
(1 part cdc2/cyclinB, 16 parts buffer C, 5 parts histone H1)×Number of assay tubes+1 and add […] to each assay tube containing […] buffer C±inhibitor.
It is still necessary, however, to make up assay blank (i.e. without histone) separately.

Another data set concerns the target CDK2 (Homo sapiens, UniProt P24941). The data set is described as follows: Inhibition of CDK2 (CDK inhibition assay). It counts as biochemical. To be noted: read-out: IC50 ± SD CDK2.
Text: Assays are available for testing the inhibitory activity of the compounds of interest against a range of CDK/cyclin complexes, including CDK1/cyclin A, CDK1/cyclin B, CDK1/cyclin F, CDK2/cyclin A, CDK2/cyclin E, CDK4/cyclin D, CDK5/35 and CDK6/cyclin D3.
Apart from reference compounds, the compounds listed are accompanied by an NU reference or identification code number.
as §1

Data set [3] has as its system many common kinases other than CDK's. To be noted: cited from earlier work.
A further data set addresses CDK4 (Homo sapiens, UniProt P11802). To be noted: cited from earlier work.
The target in the next data set is CDK6 (Homo sapiens, UniProt Q00534). Particulars: cited from earlier work.

Molecules are shown by their SMILES. Like-named read-outs stand apart in the source and are kept apart here.

Sequence of CDK4 (P11802 whole entry, species assumed): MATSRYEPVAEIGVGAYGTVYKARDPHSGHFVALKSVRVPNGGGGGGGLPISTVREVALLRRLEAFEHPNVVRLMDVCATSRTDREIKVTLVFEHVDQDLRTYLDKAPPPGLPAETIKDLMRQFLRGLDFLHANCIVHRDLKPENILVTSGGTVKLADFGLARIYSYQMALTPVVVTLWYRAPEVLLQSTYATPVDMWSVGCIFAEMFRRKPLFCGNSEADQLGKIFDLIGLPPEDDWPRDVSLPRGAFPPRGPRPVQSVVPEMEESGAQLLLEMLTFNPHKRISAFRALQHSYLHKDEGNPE
Sequence of CDK4 (P24385 whole entry partner, species assumed): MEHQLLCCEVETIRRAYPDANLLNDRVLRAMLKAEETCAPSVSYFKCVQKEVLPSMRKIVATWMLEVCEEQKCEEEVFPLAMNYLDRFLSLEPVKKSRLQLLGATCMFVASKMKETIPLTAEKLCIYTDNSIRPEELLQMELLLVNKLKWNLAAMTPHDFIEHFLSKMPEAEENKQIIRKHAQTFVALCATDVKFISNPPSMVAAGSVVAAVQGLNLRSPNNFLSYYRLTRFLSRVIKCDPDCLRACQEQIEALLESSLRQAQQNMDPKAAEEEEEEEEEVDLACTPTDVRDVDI
Sequence of CDK6 (Q00534 whole entry, species assumed): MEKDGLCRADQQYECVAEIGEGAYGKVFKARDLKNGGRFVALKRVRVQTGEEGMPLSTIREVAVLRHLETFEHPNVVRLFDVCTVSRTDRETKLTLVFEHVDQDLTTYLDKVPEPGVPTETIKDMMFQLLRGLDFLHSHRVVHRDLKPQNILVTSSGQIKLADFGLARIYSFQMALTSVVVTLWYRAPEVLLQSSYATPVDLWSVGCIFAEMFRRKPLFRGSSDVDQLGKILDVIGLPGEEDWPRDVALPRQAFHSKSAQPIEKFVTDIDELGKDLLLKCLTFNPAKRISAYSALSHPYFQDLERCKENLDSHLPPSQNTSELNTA
Sequence of CDK6 (P30281 whole entry partner, species assumed): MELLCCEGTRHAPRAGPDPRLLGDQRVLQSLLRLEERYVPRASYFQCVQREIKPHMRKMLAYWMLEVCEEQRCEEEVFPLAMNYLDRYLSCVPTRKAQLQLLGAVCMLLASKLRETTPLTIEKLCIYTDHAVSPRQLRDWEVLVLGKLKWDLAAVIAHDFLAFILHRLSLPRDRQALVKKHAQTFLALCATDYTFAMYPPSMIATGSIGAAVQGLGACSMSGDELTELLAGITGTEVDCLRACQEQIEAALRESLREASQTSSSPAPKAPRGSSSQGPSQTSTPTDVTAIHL

Consider `Nc1nc(OCC2CCCCC2)c2nc[nH]c2n1` [NU2058, 2-Amino-O^6-cyclohexylmethylpurine], for which the cytotoxicity entry in data set [1] is “cytotoxic”. Also, the “inhibitory activity against CDK1(cdc2)/cyclin B complexes” value in data set [2] is given as “very high inhibitory activity, comparable to that of olomoucine”. Moreover, the half-inhibitory concentration (IC50) at p34 cdc2(CDK1)/cyclinB (values given in μM) amounted to 7 ± 0.7 µM.

For the molecule `CC(O)CNS(=O)(=O)c1ccc(Nc2nc(OCC3CCCCC3)c3nc[nH]c3n2)cc1` (stereo not drawn) [NU6146, 4-(6-Cyclohexylmethoxy-9H-purin-2-ylamino)-N-(2-hydroxypropyl)benzenesulfonamide], the IC50 was determined as 0.014 ± 0.007 µM at p34 cdc2(CDK1)/cyclinB (values in nM) and 5 ± 1 nM on CDK2 (values in nM).

`O=S(=O)(Nc1ccccc1)c1ccc(Nc2nc(OCC3CCCCC3)c3nc[nH]c3n2)cc1` [NU6152, 4-(6-Cyclohexylmethoxy-9H-purin-2-ylamino)-N-phenyl-benzenesulfonamide]: the figures for the 50% inhibitory concentration (IC50) on p34 cdc2(CDK1)/cyclinB (values given in μM) and on CDK2 (values given in μM) were 0.4 ± 0.1 µM and 200 ± 20 nM, respectively.

As for `O=S(=O)(NCC(O)CO)c1ccc(Nc2nc(OCC3CCCCC3)c3nc[nH]c3n2)cc1` (stereo not drawn) [NU6153, 4-(6-Cyclohexylmethoxy-9H-purin-2-ylamino)-N-(2,3-dihydroxypropyl)benzenesulfonamide], the IC50 on p34 cdc2(CDK1)/cyclinB (values in nM) is 0.007 ± 0.001 µM; on CDK2 (values in nM), 5 ± 2 nM.

Regarding `O=S(=O)(Nc1ccccn1)c1ccc(Nc2nc(OCC3CCCCC3)c3nc[nH]c3n2)cc1` [NU6154, 4-(6-Cyclohexylmethoxy-9H-purin-2-ylamino)-(N-pyridin-2-yl)benzenesulfonamide], the values for the IC50 at p34 cdc2(CDK1)/cyclinB (values in nM) and on CDK2 (values in nM) were 0.02 ± 0.006 µM and 27 ± 2 nM, respectively.

Consider `CC1CCCCC1COc1nc(Nc2ccc(S(N)(=O)=O)cc2)nc2[nH]cnc12` (stereo not drawn) [NU6158, 4-[6-(2-Methyl-cyclohexylmethoxy)-9H-purin-2-ylamino]benzenesulfonamide], for which the results for the 50% inhibitory concentration (IC50) on p34 cdc2(CDK1)/cyclinB (values in nM) and on CDK2 (values in nM) were 0.006 ± 0.001 µM and 4 ± 0.3 nM, respectively.

In the case of `Cc1cc(NS(=O)(=O)c2ccc(Nc3nc(OCC4CCCCC4)c4nc[nH]c4n3)cc2)nc(C)n1` [NU6160, 4-(6-Cyclohexylmethoxy-9H-purin-2-ylamino)-N-(2,6dimethylpyrimidin-4-yl)-benzenesulfonamide], the IC50 at p34 cdc2(CDK1)/cyclinB (values in nM) was 0.028 ± 0.002 µM; on CDK2 (values in nM) it was 33 ± 6 nM.

For `NS(=O)(=O)c1ccc(Nc2nc(OCC3CC=CCC3)c3nc[nH]c3n2)cc1` (stereo not drawn) [NU6162, 4-[6-(Cyclohex-3-enylmethoxy)-9H-purin-2ylamino]-benzenesulfonamide], the concentration for half-maximal inhibition (IC50) on p34 cdc2(CDK1)/cyclinB (values in nM) came out at 0.021 ± 0.004 µM; at CDK2 (values in nM), 10 ± 1 nM.

Consider `O=S(=O)(NCC(F)(F)F)c1ccc(Nc2nc(OCC3CCCCC3)c3nc[nH]c3n2)cc1` [NU6163, 4-(6-Cyclohexylmethoxy-9H-purin-2-ylamino)-N-(2,2,2-trifluoroethyl)-benzenesulfonamide], for which the results for the half-maximal inhibitory concentration (IC50) at p34 cdc2(CDK1)/cyclinB (values in nM) and at CDK2 (values in nM) were 0.066 ± 0.005 µM and 51 ± 16 nM, respectively.

In the case of `NC(=O)Cc1ccc(Nc2nc(OCC3CCCCC3)c3nc[nH]c3n2)cc1` [NU6164, 2-[4-(6-Cyclohexylmethoxy-9H-purin-2-ylamino)-phenyl]acetamide], the IC50 was 0.136 ± 0.022 µM on p34 cdc2(CDK1)/cyclinB (values in nM) and 132 ± 20 nM on CDK2 (values in nM).

For `NS(=O)(=O)c1ccc(Nc2nc(OCC3CCCC3)c3nc[nH]c3n2)cc1` [NU6166, 4-[6-Cyclopentylmethoxy-9H-purin-2-ylamino)-benzenesulfonamide], the figures for the half-inhibitory concentration (IC50) on p34 cdc2(CDK1)/cyclinB (values in nM) and on CDK2 (values in nM) were 0.014 ± 0.003 µM and 7 ± 1 nM, respectively.

For the molecule `C[C@H](O)CNS(=O)(=O)c1ccc(Nc2nc(OCC3CCCCC3)c3nc[nH]c3n2)cc1` [NU6167, 4-(6-Cyclohexylmethoxy-9H-purin-2-ylamino)-N-(2-hydroxypropyl)benzenesulfonamide], the IC50 on p34 cdc2(CDK1)/cyclinB (values in nM) came to 0.009 ± 0.0002 µM; at CDK2 (values in nM) it was 6 ± 1 nM.

Consider `Cn1cnc2c(NCc3ccccc3)nc(NCCO)nc21` [Olomoucine, 2-(2-hydroxyethylamino)-6-benzylamino-9-methyl-purine], for which the “inhibitory activity in relation to many common kinases other than CDK's” value in data set [3] was “total lack of inhibitory activity”. For the same molecule, the “activity against CDK4” value on CDK4 is recorded as “neither has been found to be active”. At CDK6, the “activity against CDK6” value is “neither has been found to be active”.

Turning to `CC[C@H](CO)Nc1nc(NCc2ccccc2)c2ncn(C(C)C)c2n1` [roscovitine, 6-(benzylamino)-2(R)-[{1-(hydroxy-methyl)propyl}amino]-9-isopropylpurine], the “activity against CDK4” value at CDK4 was “neither has been found to be active”. The “activity against CDK6” value at CDK6 is on record as “neither has been found to be active”.
